Experimental data published in PubChem BioAssay (NCI).
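Values below derive from 48-hour exposures of cells grown in 96-well plates, with endpoints linearly interpolated between the two concentrations bracketing the appropriate inhibition level. GI50: concentration for 50% inhibition of growth. TGI: total growth inhibition.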

Legend:
Assay in all cases: inhibition of tumour cell growth, NCI panel, 48 h
[1] = tested on: IGROV1 ovarian
[2] = tested on: SK-MEL-5 melanoma
[3] = tested on: HT29 colon
[4] = tested on: HCT-116 colon
[5] = tested on: CAKI-1 renal
[6] = tested on: RXF 393 renal
[7] = tested on: UO-31 renal
[8] = tested on: MOLT-4 leukemia
[9] = tested on: HOP-62 NSCLC
[10] = tested on: NCI-H522 lung
[11] = tested on: SW-620 colon
[12] = tested on: SK-MEL-2 melanoma
[13] = tested on: T-47D breast
[14] = tested on: RPMI-8226 leukemia
[15] = tested on: SNB-19 CNS
[16] = tested on: A498 renal
[17] = tested on: HL-60(TB) leukemia
[18] = tested on: HCT-15 colon
[19] = tested on: HS 578T breast
[20] = tested on: KM12 colon
[21] = tested on: ACHN renal
[22] = tested on: CCRF-CEM leukemia
[23] = tested on: OVCAR-8 ovarian
[24] = tested on: MALME-3M melanoma
[25] = tested on: K-562 leukemia
[26] = tested on: COLO 205 colon
[27] = tested on: SF-268 CNS
[28] = tested on: DU-145 prostate
[29] = tested on: TK-10 renal
[30] = tested on: A549 NSCLC
[31] = tested on: UACC-62 melanoma
[32] = tested on: PC-3 prostate
[33] = tested on: 786-0 renal
[34] = tested on: SF-295 CNS
[35] = tested on: OVCAR-5 ovarian
[36] = tested on: MCF7 breast
[37] = tested on: NCI-H23 lung
[38] = tested on: HOP-92 NSCLC
[39] = tested on: BT-549 breast
[40] = tested on: UACC-257 melanoma
[41] = tested on: SN12C renal
[42] = tested on: MDA-MB-468 breast
[43] = tested on: M14 melanoma
[44] = tested on: SF-539 CNS
[45] = tested on: NCI-H226 lung
[46] = tested on: SR leukemia
[47] = tested on: NCI/ADR-RES ovarian
[48] = tested on: HCC-2998 colon
[49] = tested on: SK-MEL-28 melanoma
[50] = tested on: LOX IMVI melanoma
[51] = tested on: SK-OV-3 ovarian
[52] = tested on: MDA-MB-435
[53] = tested on: SNB-75 CNS
[54] = tested on: OVCAR-3 ovarian
[55] = tested on: U251 CNS
[56] = tested on: EKVX NSCLC
[57] = tested on: OVCAR-4 ovarian
[58] = tested on: NCI-H460 lung
[59] = tested on: MDA-MB-231 breast

Which results are given for `OC1CCC(Cn2c(C(F)(F)F)cc3c(Cl)ncnc32)CC1` (stereo not drawn)?
GI50 [1]: 1.97 µM; TGI [1]: 4.07 µM; GI50 [2]: 4.81 µM; TGI [2]: 16.7 µM; GI50 [3]: 15.6 µM; TGI [3]: > 100 µM; GI50 [4]: 3.56 µM; TGI [4]: 15.8 µM; GI50 [5]: 16.8 µM; TGI [5]: 52.8 µM; GI50 [6]: 12.5 µM; TGI [6]: 35 µM; GI50 [7]: 15.1 µM; TGI [7]: 65.8 µM; GI50 [8]: 2.77 µM; TGI [8]: 8.15 µM; GI50 [9]: 19.7 µM; TGI [9]: 57.6 µM; GI50 [10]: 1.54 µM; TGI [10]: 3.55 µM; GI50 [11]: 12.2 µM; TGI [11]: 38.8 µM; GI50 [12]: 13.2 µM; TGI [12]: 27.9 µM; GI50 [13]: 26.5 µM; TGI [13]: > 100 µM; GI50 [14]: 34 µM; TGI [14]: > 100 µM; GI50 [15]: 13.4 µM; TGI [15]: 26.8 µM; GI50 [16]: > 100 µM; TGI [16]: > 100 µM; GI50 [17]: 2.62 µM; TGI [17]: 9.01 µM; GI50 [18]: 3.69 µM; TGI [18]: 20.1 µM; GI50 [19]: 13.8 µM; TGI [19]: 53.6 µM; GI50 [20]: 26.4 µM; TGI [20]: 94.3 µM; GI50 [21]: 8.76 µM; TGI [21]: 49.9 µM; GI50 [22]: 5.56 µM; TGI [22]: > 100 µM; GI50 [23]: 2.29 µM; TGI [23]: 5.39 µM; GI50 [24]: 17.7 µM; TGI [24]: 64.5 µM; GI50 [25]: 2.88 µM; TGI [25]: > 100 µM; GI50 [26]: 24.4 µM; TGI [26]: > 100 µM; GI50 [27]: 2.52 µM; TGI [27]: 6.89 µM; GI50 [28]: 7.87 µM; TGI [28]: 20.5 µM; GI50 [29]: > 100 µM; TGI [29]: > 100 µM; GI50 [30]: 30.8 µM; TGI [30]: > 100 µM; GI50 [31]: 5.4 µM; TGI [31]: 19.3 µM; GI50 [32]: 9.01 µM; TGI [32]: 36.3 µM; GI50 [33]: 32.1 µM; TGI [33]: > 100 µM; GI50 [34]: 22.7 µM; TGI [34]: 84 µM; GI50 [35]: > 100 µM; TGI [35]: > 100 µM; GI50 [36]: 36.9 µM; TGI [36]: > 100 µM; GI50 [37]: 3.08 µM; TGI [37]: 11.4 µM; GI50 [38]: 20.6 µM; TGI [38]: 64.6 µM; GI50 [39]: 13.1 µM; TGI [39]: 27.9 µM; GI50 [40]: 3.4 µM; TGI [40]: 14.1 µM; GI50 [41]: 5.36 µM; TGI [41]: 19.8 µM; GI50 [42]: 2.14 µM; TGI [42]: 5.69 µM; GI50 [43]: 4.94 µM; TGI [43]: 27 µM; GI50 [44]: 17.7 µM; TGI [44]: 39 µM; GI50 [45]: 23.4 µM; TGI [45]: 79.7 µM; GI50 [46]: 2.14 µM; TGI [46]: 6.78 µM; GI50 [47]: 26.1 µM; TGI [47]: > 100 µM; GI50 [48]: 1.8 µM; TGI [48]: 3.33 µM; GI50 [49]: 9.38 µM; TGI [49]: 30.8 µM; GI50 [50]: 1.71 µM; TGI [50]: 3.15 µM; GI50 [51]: 22.4 µM; TGI [51]: > 100 µM; GI50 [52]: 12.1 µM; TGI [52]: 25.8 µM; GI50 [53]: 10.8 µM; TGI [53]: 23.1 µM; GI50 [54]: 8.04 µM; TGI [54]: 29.1 µM; GI50 [55]: 3.21 µM; TGI [55]: 12.8 µM; GI50 [56]: 12.9 µM; TGI [56]: 38.7 µM; GI50 [57]: 17.8 µM; TGI [57]: 47.2 µM; GI50 [58]: 4.76 µM; TGI [58]: 16.6 µM; GI50 [59]: 4.45 µM; TGI [59]: 20.1 µM
